Measured values published in patent publication US8895561B2, “Compounds and methods for treating candidiasis and aspergillus infections” (Cellceutix Corporation, priority 2012, dated 2014).
In brackets after ≈: the same amount, converted by molar mass. Like-named read-outs stand apart in the source and are kept apart here.

Assays:
Format in all cases: cell-based
C. albicans GDH2346 = test: Candida IC50, vegetative cells, by OD600 and fluorescence; details: Candida albicans, GDH2346
Experimental: (§1) Candida IC50s were determined by OD600 and fluorescence from vegetative cells and by MTS viability assay in the hyphal state. MICs were determined using a broth microdilution assay under standard CLSI conditions Bacteria strains: E. coli 25922 (EC), S. aureus 27660 (SA), E. faecalis 29212 (EF), P. aeruginosa 10145 (PA), and K. pneumoniae 13883 (KP). Cytotoxicity (EC50) was determined against mouse 3T3 fibroblasts, human transformed liver HepG2 cells, and human oral keratinocyte cell line, OKF6/TERT using an MTS viability assay. Candida IC50s<10 μg/mL, MICs<5 μg/mL and cytotoxicity EC50s>100 μM are indicated in green. MICs>5 μg/mL and cytotoxicity EC50s<100 μM are indicated in red. Candida IC50s (CA) were determined by OD600 and fluorescence from vegetative cells. MICs were determined using a broth microdilution assay under standard CLSI conditions Bacteria strains: E. coli 25922 (EC), S. aureus 27660 (SA), E. faecalis 29212 (EF), P. aeruginosa 10145 (PA), and K. pneumoniae 13883 (KP). Cytotoxicity (EC50) was determined against mouse 3T3 fibroblasts and human transformed liver HepG2 cells using an MTS viability assay. For determination of anti-Candida IC50s, the method was modified by using RPMI/MOPS buffer pH 6.3 and by addition of FDGlu, a substrate for the yeast enzyme exoglucanase which is secreted during cell growth. This provides a fluorescent readout for cell growth which was used in addition to the traditional optical density measure of growth. OD600 and fluorescence were determined at 24 and 48 hours and the average of all 4 reads was used for the final IC50 determination.

[1] = tested on: C. albicans GDH2346 hyphal biofilm; test: Candida IC50 in the hyphal state / hyphal biofilm, MTS viability assay; details: Candida albicans
Experimental: Candida IC50s were determined by OD600 and fluorescence from vegetative cells and by MTS viability assay in the hyphal state. MICs were determined using a broth microdilution assay under standard CLSI conditions Bacteria strains: E. coli 25922 (EC), S. aureus 27660 (SA), E. faecalis 29212 (EF), P. aeruginosa 10145 (PA), and K. pneumoniae 13883 (KP). Cytotoxicity (EC50) was determined against mouse 3T3 fibroblasts, human transformed liver HepG2 cells, and human oral keratinocyte cell line, OKF6/TERT using an MTS viability assay. Candida IC50s<10 μg/mL, MICs<5 μg/mL and cytotoxicity EC50s>100 μM are indicated in green. MICs>5 μg/mL and cytotoxicity EC50s<100 μM are indicated in red. To form the biofilm, yeast were grown in RPMI/MOPS, 0.4% sucrose pH7.4 media supplemented with 10% FBS in tissue culture-treated flat bottom 96 well plates for 48 hours. The filamentous yeast cultures were then vigorously washed to remove any non-filamentous, non-attached yeast. The remaining attached filamentous biofilm yeast were incubated in saline containing serially diluted compounds for 24 hours. The cultures were aspirated to remove compound, rinsed and overlayed with RPMI/MOPS, 0.4% sucrose pH7.4 media. Biofilm viability was measured using a cell proliferation assay (CellTiter96 Aqueous Kit from Promega) and IC50s were determined using Prism GraphPad software (nonlinear fit, Table 3).

E. coli 25922 = test: Bacterial MIC, broth microdilution, CLSI; details: Escherichia coli; E. coli 25922
Experimental: as §1, with “assay.” for “assay. For determination of anti-Candida IC50s, the method was modified by using RPMI/MOPS buffer pH 6.3 and by addition of FDGlu, a substrate for the yeast enzyme exoglucanase which is secreted during cell growth. This provides a fluorescent readout for cell growth which was used in addition to the traditional optical density measure of growth. OD600 and fluorescence were determined at 24 and 48 hours and the average of all 4 reads was used for the final IC50 determination.”

[2] = tested on: human transformed liver HepG2 cells; test: Cytotoxicity, MTS viability assay; details: Homo sapiens, HepG2; cytotoxicity
Experimental: (§2) Candida IC50s were determined by OD600 and fluorescence from vegetative cells and by MTS viability assay in the hyphal state. MICs were determined using a broth microdilution assay under standard CLSI conditions Bacteria strains: E. coli 25922 (EC), S. aureus 27660 (SA), E. faecalis 29212 (EF), P. aeruginosa 10145 (PA), and K. pneumoniae 13883 (KP). Cytotoxicity (EC50) was determined against mouse 3T3 fibroblasts, human transformed liver HepG2 cells, and human oral keratinocyte cell line, OKF6/TERT using an MTS viability assay. Candida IC50s<10 μg/mL, MICs<5 μg/mL and cytotoxicity EC50s>100 μM are indicated in green. MICs>5 μg/mL and cytotoxicity EC50s<100 μM are indicated in red.
(§3) Candida IC50s (CA) were determined by OD600 and fluorescence from vegetative cells. MICs were determined using a broth microdilution assay under standard CLSI conditions Bacteria strains: E. coli 25922 (EC), S. aureus 27660 (SA), E. faecalis 29212 (EF), P. aeruginosa 10145 (PA), and K. pneumoniae 13883 (KP). Cytotoxicity (EC50) was determined against mouse 3T3 fibroblasts and human transformed liver HepG2 cells using an MTS viability assay.
(§4) CLSI conditions Bacteria strains: clinical isolates; yeast strains: C. dubliniensis (NCPF3949), C. glabrata (ATCC 90030), C. krusei (ATCC 6258), C. parapsilosis (ATCC 22019), and C. tropicalis (ATCC 750). Cytotoxicity (EC50) was determined against mouse 3T3 fibroblasts, human transformed liver HepG2 cells, and human oral keratinocyte cell line, OKF6/TERT using an MTS viability assay.

mouse 3T3 fibroblasts = test: Cytotoxicity, MTS viability assay; details: Mus musculus, NIH3T3; cytotoxicity
Experimental: as §2, §3, §4

[3] = tested on: human oral keratinocyte cell line, OKF6/TERT; test: Cytotoxicity, MTS viability assay
Experimental: as §2, §4

A. viscosis = test: Commensal bacteria MIC, broth microdilution
Experimental: (§5) Bacterial MICs were determined using a broth microdilution assay under standard
as §4

S. salivarius = test: Commensal bacteria MIC, broth microdilution; details: Streptococcus salivarius
Experimental: as §5, §4

[4] = vegetative cells, read-out: IC50 Candida, Vegetative
[5] = vegetative cultures, read-out: Anti-C. albicans GDH2346 Vegetative (IC50)
[6] = 48 h, 2-day hyphal biofilm cultures, read-out: Anti-C. albicans GDH2346 Hyphal (IC50)
[7] = hyphal state, read-out: IC50 Candida, Hyphal

| Structure (SMILES) | IC50 (C. albicans GDH2346; [4]) | IC50 (C. albicans GDH2346; [5]) | IC50 [1, 6] | IC50 [1, 7] | EC50 (E. coli 25922) | IC50 [2] | IC50 (mouse 3T3 fibroblasts) | IC50 [3] | MIC (A. viscosis) | MIC (S. salivarius) | IC50 (C. albicans GDH2346; Table 6, read-out: IC50 C. albicans) |
| --- | --- | --- | --- | --- | --- | --- | --- | --- | --- | --- | --- |
| NCCSc1cc(SCCN)c(C(F)(F)F)cc1NC(=O)c1cc(C(=O)Nc2cc(C(F)(F)F)c(SCCN)cc2SCCN)ncn1 [Compound 100] | 4.93 µg/mL (≈ 6.53 µM) | 4.93 µg/mL (≈ 6.53 µM) | 4.9 µg/mL (≈ 6.49 µM) | 4.9 µg/mL (≈ 6.49 µM) | 1.56 µg/mL (≈ 2.07 µM) | > 1000 µM | 439 µM | > 1000 µM | > 64 µg/mL | > 64 µg/mL | – |
| NCCCOc1cc(OCCCN)cc(-c2ccc3c(c2)c2cc(-c4cc(OCCCN)cc(OCCCN)c4)ccc2n3CCCN)c1 [Compound 135] | 1.44 µg/mL (≈ 2.15 µM) | 1.44 µg/mL (≈ 2.15 µM) | 2.68 µg/mL (≈ 4.01 µM) | 2.68 µg/mL (≈ 4.01 µM) | 6.25 µg/mL (≈ 9.34 µM) | 885 µM | 436 µM | 766 µM | > 64 µg/mL | > 64 µg/mL | – |
| N=C(N)N1CCN(c2ccc(-c3cc(-c4ccc(N5CCN(C(=N)N)CC5)cc4)ncn3)cc2)CC1 [Compound 136] | 4.24 µg/mL (≈ 8.75 µM) | 4.24 µg/mL (≈ 8.75 µM) | 0.71 µg/mL (≈ 1.47 µM) | 0.71 µg/mL (≈ 1.47 µM) | > 50 µg/mL | 453 µM | 311 µM | 466 µM | 4 µg/mL (≈ 8.25 µM) | 16 µg/mL (≈ 33 µM) | 1.4 µg/mL (≈ 2.89 µM) |
| NCCCOc1cc(-c2cn(-c3cc(OCCCN)cc(OCCCN)c3)nn2)cc(-c2cn(-c3cc(OCCCN)cc(OCCCN)c3)nn2)c1 [Compound 137] | 1.89 µg/mL (≈ 2.59 µM) | – | – | 2.29 µg/mL (≈ 3.14 µM) | 50 µg/mL (≈ 68.5 µM) | 182 µM | 83 µM | 42 µM | > 64 µg/mL | > 64 µg/mL | – |
